SMILES strings stand for the structures.

For one assay, the system named is dL9.2 (SEQ. ID. NO. 2). The experiment in a line: Binding/activation of fluorogen by FAP dL9.2. The text has this:
A precursor FAP designated dL9 (SEQ. ID. NO. 1) was designed using the coding sequence of the light-chain from HL9-MG, a scFv originally isolated for binding and fluorescence activation of malachite green-based fluorogenic dyes (Szent-Gyorgyi, et al. 2008, incorporated herein by reference). This FAP was assembled as a tandem dimer of light chains by attaching a glycine-serine linker and a codon-optimized copy of the light chain gene to the original light chain via PCR. […] Mutagenesis and library generation by electroporation was performed in a previously described manner (Chao, et al., Isolating and engineering human antibodies using yeast surface display, Nature Protocols, vol. 1, No. 2, pp. 755-768 (2006)), but screening employed the protein secretion vector pPNL9, rather than the surface display vector pPNL6: Individual S. cerevisiae expressing FAP mutants were incubated with cell-permeant fluorogen MG-ester and the brightest activators were cloned via flow cytometry. Clones were induced for FAP production in tryptone-based protein secretion media (Szent-Gyorgyi, et al. 2008) and media was screened for activation of MG-ester after five days of induction at 20° C. This screen yielded dL9.2 (SEQ. ID. NO. 2): a bright, stable FAP amenable to high levels of expression. […]

Assay [1] relates to S. cerevisiae expressing mL9.3 or mL9.5 surface-tethered. Briefly: Confocal imaging of yeast with surface-tethered FAPs. It counts as cell-based. To be noted: 100 nM fluorogen, excitation 641 nm, emission 794/160. From the text: Plasmids pPNL6-mL9.3 and pPNL6-mL9.5 for yeast cell surface display were produced by PCR amplification of mL9.3 (SEQ. ID. NO. 23) and mL9.5 (SEQ. ID. NO. 24) from pPNL6-dL9.2 and pPNL6-dL9.5, respectively, using primers pCTCON2F (CGACGATTGAAGGTAGATACCCATACGACGTTCCAGACTACGCTCTGCAG) (SEQ. ID. NO. 29) and p6 mL9XRv (TCTCGATGCGGCCGCTTAAGACAAAACAGTAACTTTAGTACCACC) (SEQ. ID. NO. 30). Amplicons were digested with NheI and NotI prior to ligation into a like-digested pPNL6 vector backbone. Ligated plasmids were transformed into E. coli (NEB 10β) by heat-shock, and plasmids from single colonies were sequenced to verify identity. Upon verification, purified stocks of each plasmid were introduced into S. cerevisiae strain JAR200 via electroporation. Transformed cells were induced in the manner described in Szent-Gyorgyi, et al. 2008 for 96 hours prior to imaging. Cells were adhered to concanavalin A-coated glass-bottom dishes (MatTek Corporation) for 10 minutes at room temperature. […] Images of fluorescence (FIG. 12, NIR:794/160) were obtained by excitation with a 641 nm laser, and emission was collected through a 794/160 bandpass filter (Semrock) by an iXon3 EMCCD (DU897 BV). […]

Turning to `CN(C)c1ccc(C(/C=C/c2ccc(N(C)CCCCC(=O)NC(CCS(=O)(=O)O)C(=O)O)cc2)=C2C=CC(=[N+](C)C)C=C2)cc1` (stereo not shown) [SKC728], the “Binding and fluorescence activation by dL9.2” value in the assay with dL9.2 (SEQ. ID. NO. 2) is on record as “bind”. For the same compound, in assay [1], the “NIR fluorescence of fluorogen alone in non-expressing yeast” value is listed as “do not cause NIR fluorescence in the absence of cognate FAP”.

For the compound `CN(C)c1ccc(/C=C/C(=C2C=CC(=[N+](C)C)C=C2)c2ccc(N(C)C)cc2)cc1` [SKC602, (E)-N-(4-(1,3-bis(4-(dimethylamino)phenyl)allylidene)cyclohexa-2,5-dien-1-ylidene)-N-methylmethanaminium], the “Binding and fluorescence activation by dL9.2” value in the assay on dL9.2 (SEQ. ID. NO. 2) was “bind and activate fluorescence”. Besides, in assay [1], the “NIR fluorescence of fluorogen alone in non-expressing yeast” value was “do not cause NIR fluorescence in the absence of cognate FAP”.

The values above are taken from US9023998B2, “Near infrared fluorogen and fluorescent activating proteins for in vivo imaging and live-cell biosensing” (Carnegie Mellon University, priority 2013, dated 2015).
